Like-named read-outs stand apart in the source and are kept apart here. Positions of bridges follow the written chain, without caps; N, C: chain ends. Non-standard residues stand in square brackets, D forms with d. Residues, ends and D or L forms follow the SMILES beside them. *: point of attachment. X1 = CC[C@H](C)CCCCC(=O)*; Dab = NCC[C@H](N)C(=O)O
Assays:
[1] = tested on: E. coli AIM-1; test: MIC, broth microdilution; type: cell-based, Escherichia coli
Protocol: (§1) The minimum inhibitory concentration (MIC) of colistin (as sulphate salt) and polymyxin B and their conjugates was determined using the broth microdilution method in MH broth in accordance with standard guidelines. Test organisms were suspended in MH broth (100 µL, 5 × 10^5 colony forming units (CFU)/mL) and incubated in 96-well microtitre plates in serial two-fold dilutions of the test compounds. […] Results were expressed as mode (n = 3). […] Selective activities of the polymyxins and OligoG–polymyxin conjugates were calculated as follows:Selectivity index (SI) = IC50 (μg/mL)/MIC (μg/mL).
(§2) In addition, alginate oligomer–colistin conjugates (3 mg/mL) were incubated in PBS at pH 7 containing bacterial alginate lyase (1 and 10 U/mL) at 37 °C for 24 h, before preparing microtitre plates as described above.

[2] = tested on: P. aeruginosa MDR 301; type: cell-based, Pseudomonas aeruginosa
Protocol: as §1, §2
(§3) To study the antimicrobial efficacy of test compounds under more clinically relevant conditions, the MIC protocol was performed using AS medium instead of MH broth. The plates were incubated with resazurin as described above.

[3] = tested on: range of Gram-negative bacterial pathogens; test: MIC and selectivity index across the panel of isolates; type: cell-based; settings: mean SI over the isolates of Table S4
Protocol: as §1

[4] = tested on: P. aeruginosa NCTC 10662; type: cell-based, Pseudomonas aeruginosa; settings: SI = IC50 (µg/mL, HK-2)/MIC (µg/mL)
Protocol: as §1

[5] = tested on: P. aeruginosa NH57388A; test: MIC, broth microdilution; type: cell-based, Pseudomonas aeruginosa
Protocol: as §1, §3

[6] = tested on: E. coli NCTC 10418; type: cell-based, Escherichia coli; settings: SI = IC50 (µg/mL, HK-2)/MIC (µg/mL)
Protocol: as §1

[7] = tested on: A. baumannii 7789; type: cell-based, Acinetobacter baumannii
Protocol: as §1, §2, §3

[8] = tested on: A. baumannii MDR ACB; type: cell-based, Acinetobacter baumannii; settings: for MIC: resazurin read-out
Protocol: as §1
(§4) To account for turbidity caused by mucin, resazurin dye solution (30 µL, 0.01% w/v in dH2O) was added to each well and incubated for a further 3 h at 37 °C. Colour changes were observed and recorded.

[9] = tested on: P. aeruginosa R22; type: cell-based, Pseudomonas aeruginosa; settings: for MIC: resazurin read-out
Protocol: as §1, §4

[10] = tested on: K. pneumoniae IR25; type: cell-based, Klebsiella pneumoniae; settings: for MIC: resazurin read-out
Protocol: as §1, §4

[11] = tested on: E. coli PN21; test: MIC, broth microdilution; type: cell-based, Escherichia coli; settings: SI = IC50 (µg/mL, HK-2)/MIC (µg/mL)
Protocol: as §1

[12] = MTT cytotoxicity assay; type: cell-based; settings: human, HK-2 cells, 72 h incubation, 0–1 mg/mL polymyxin base, ±SEM (n = 18), read-out: Half maximal inhibitory concentration (IC50), cytotoxicity
Protocol: A 3-(4,5-dimethylthiazol-2-yl)-2,5-diphenyltetrazolium bromide (MTT) assay was used to measure cell viability and proliferation of HK-2 cells. Cells were seeded into sterile 96-well microtitre plates at 1 × 10^5 cells/mL (100 µL/well) and allowed to adhere for 24 h at 37 °C. The following day, the old medium was replaced with test compounds (0–1 mg/mL polymyxin base) dissolved in filter-sterilised K-SFM. After 67 h incubation at 37 °C, filter-sterilised MTT solution (20 µL of a 5 mg/mL solution in PBS) was added to each well and incubated for a further 5 h at 37 °C. Finally, the medium was carefully removed, and the formazan crystals were solubilised in DMSO (100 µL) for 30 min. Absorbance was measured at 550 nm using a Fluostar Omega microplate reader. […] Data are expressed as mean ± SEM (n = 18).

[13] = tested on: E. coli IR57; type: cell-based, Escherichia coli
Protocol: as §1, §4, §3

[14] = tested on: E. coli 5702; test: MIC, broth microdilution; type: cell-based, Escherichia coli
Protocol: as §1, §3

[15] = tested on: K. pneumoniae KP05 506; type: cell-based, Klebsiella pneumoniae
Protocol: as §1, §2, §3

[16] = cited from earlier work
Protocol: In a clinical setting, binding of colistin to sputum biomolecules (e.g., mucin) in the airways could negatively impact antibiotic effectiveness and availability. […] A four-fold increase in the MIC of colistin was also reported when the assay was conducted in AS medium instead of MH broth, thought to be caused by bacterial growth disruption, structural modifications of lipopolysaccharides or direct colistin–mucin interactions. Alt ...

[17] = in vivo; cited from earlier work
[18] = Two-compartment static dialysis bag model, diffusion; type: physicochemical; settings: IC 10 mg/mL colistin base in PBS (5 mL), OC PBS (15 mL), 37 °C, 70 rpm, BCA assay, n = 3
Protocol: A two-compartment static dialysis bag model (adapted from Azzopardi et al.) was used to study the PK–PD profile of OligoG–colistin conjugates. First, the ability of the dialysis membrane to control diffusion of test compounds was assessed. […] The aseptically sealed beaker was incubated (37 °C, 70 rpm) for 48 h. Samples were collected at various time points from each compartment and stored at −20 °C prior to analysis of colistin content by BCA assay.

[19] = tested on: P. aeruginosa R22; test: Biofilm formation assay (CLSM, COMSTAT); type: cell-based, Pseudomonas aeruginosa; settings: 24 h
Protocol: To analyse the effect of test compounds on biofilm formation, solutions of test compounds in MH broth were inoculated (1:10) with P. aeruginosa R22 (standardised to 10^7 CFU/mL) in a Greiner glass-bottomed optical 96-well plate. The plate was then wrapped in parafilm and incubated (37 °C, 20 rpm) for 24 h. The supernatant was carefully removed and replaced with 10% v/v LIVE/DEAD stain in PBS prior to imaging. CLSM of Syto 9 (λex/λem maximum, 480/500 nm) and propidium iodide (λex/λem maximum, 490/635 nm) was performed using a Leica SP5 confocal microscope with ×63 lens (under oil) and a step size of 0.79 µm. Z-stack CLSM images were analysed using COMSTAT image analysis software and results were expressed as mean ± SEM (n = 15).

[20] = tested on: P. aeruginosa MDR 301; test: Bacterial growth curves (48 h); type: cell-based, Pseudomonas aeruginosa; settings: absorbance 600 nm hourly for 48 h, n = 3
Excerpt: Results were expressed as mean values (n = 3).

[21] = tested on: A. baumannii 7789; test: Time-to-kill (TTK) in PK–PD model; type: cell-based, Acinetobacter baumannii; settings: 0.25 µg/mL colistin base (colistin sulphate at MIC; OligoG–E–colistin at 2 × MIC), n = 3
Protocol: A modified experimental set-up was used to investigate the concentration- and time-dependent antimicrobial activity of test compounds using a TTK assay (48 h). […] The OC contained MH broth inoculated with A. baumannii 7789 (5 × 10^5 CFU/mL). Samples were collected from the OC (0, 2, 4, 6, 24 and 48 h) and colony counts (CFU/mL) determined using drop counts. Treatments were considered bactericidal if the reduction in viable bacterial counts was ≥3 log10 CFU/mL (equivalent to 99.9% of the initial inoculum) and bacteriostatic if the decrease was <3 log10 CFU/mL [33, 34]. Growth (no test compounds) and sterility (no bacteria) controls were also performed.

[22] = broth microdilution, MH broth, 5 × 10^5 CFU/mL, 16–20 h, mode (n = 3)
[23] = AS (artificial sputum) medium, resazurin read-out
[24] = MH broth (Table S7 comparison with AS medium)
[25] = MH broth + porcine stomach (type II) mucin 0.2% w/v
[26] = MH broth + porcine stomach (type II) mucin 2% w/v
[27] = MH broth + porcine stomach (type II) mucin 0.2% w/v, resazurin read-out
[28] = MH broth + porcine stomach (type II) mucin 2% w/v, resazurin read-out
[29] = MH broth, mucin 0%, resazurin read-out
[30] = alginate lyase in MH broth, 0 U/mL
[31] = alginate lyase in MH broth, 1 U/mL
[32] = alginate lyase in MH broth, 10 U/mL
[33] = pre-incubation with alginate lyase 0 U/mL (3 mg/mL in PBS pH 7, 37 °C, 24 h), then MIC in MH broth
[34] = pre-incubation with alginate lyase 1 U/mL (3 mg/mL in PBS pH 7, 37 °C, 24 h), then MIC in MH broth
[35] = pre-incubation with alginate lyase 10 U/mL (3 mg/mL in PBS pH 7, 37 °C, 24 h), then MIC in MH broth

CC[C@H](C)CCCCC(=O)N[C@@H](CCN)C(=O)N[C@H](C(=O)N[C@@H](CCN)C(=O)N[C@H]1CCNC(=O)[C@H]([C@@H](C)O)NC(=O)[C@H](CCN)NC(=O)[C@H](CCN)NC(=O)[C@H](CC(C)C)NC(=O)[C@@H](Cc2ccccc2)NC(=O)[C@H](CCN)NC1=O)[C@@H](C)O [Polymyxin B, polymyxin B] (X1-[Dab]T[Dab][Dab][Dab][dF]L[Dab][Dab]T; lactam 4-C (inferred); N-terminus assumed)
MIC [1, 22]: <0.004 μg/mL Drug Base | MIC [2, 23]: 4 μg/mL Drug Base | MIC [2, 24]: 0.5 μg/mL Drug Base | Selectivity index (SI) value ([2]; SI = IC50 (µg/mL, HK-2)/MIC (µg/mL), P. aeruginosa MDR 301): 22 | Selectivity index (SI) value, Mean [3]: 66 | Selectivity index (SI) value [4]: 175 | MIC [5, 23]: 1 μg/mL Drug Base | MIC [5, 24]: 0.25 μg/mL Drug Base | Selectivity index (SI) value ([5]; SI = IC50 (µg/mL, HK-2)/MIC (µg/mL), P. aeruginosa NH57388A): 44 | Selectivity index (SI) value [6]: 1 | MIC [7, 23]: 0.5 μg/mL Drug Base | MIC [7, 24]: 0.125 μg/mL Drug Base | Selectivity index (SI) value ([7]; SI = IC50 (µg/mL, HK-2)/MIC (µg/mL), A. baumannii 7789): 88 | MIC [8, 25]: 1 μg/mL Drug Base | MIC [8, 26]: 16 μg/mL Drug Base | MIC ([8]; MH broth, mucin 0%): 0.125 μg/mL Drug Base | Selectivity index (SI) value ([8]; SI = IC50 (µg/mL, HK-2)/MIC (µg/mL), A. baumannii MDR ACB): 88 | MIC [9, 25]: 4 μg/mL Drug Base | MIC [9, 26]: 64 μg/mL Drug Base | MIC ([9]; MH broth, mucin 0%): 0.25 μg/mL Drug Base | Selectivity index (SI) value ([9]; SI = IC50 (µg/mL, HK-2)/MIC (µg/mL), P. aeruginosa R22): 44 | MIC [10, 25]: 4 μg/mL Drug Base | MIC [10, 26]: 64 μg/mL Drug Base | MIC ([10]; MH broth, mucin 0%): 0.125 μg/mL Drug Base | Selectivity index (SI) value ([10]; SI = IC50 (µg/mL, HK-2)/MIC (µg/mL), K. pneumoniae IR25): 88 | Selectivity index (SI) value [11]: 3 | IC50 at 72 h [12]: 11 µg/mL | MIC [13, 23]: 0.125 μg/mL Drug Base | MIC [13, 24]: 0.5 μg/mL Drug Base | MIC [13, 27]: 1 μg/mL Drug Base | MIC [13, 28]: 4 μg/mL Drug Base | MIC [13, 29]: 0.5 μg/mL Drug Base | MIC [14, 23]: 0.25 μg/mL Drug Base | MIC [14, 24]: 0.063 μg/mL Drug Base | MIC [15, 23]: 1 μg/mL Drug Base | MIC [15, 24]: 0.125 μg/mL Drug Base | Selectivity index (SI) value ([15]; SI = IC50 (µg/mL, HK-2)/MIC (µg/mL), K. pneumoniae KP05 506): 88 | increase in MIC values when mucin was added to the bacterial culture medium [16]: > 100 fold

colistimethate sodium
plasma colistin concentration at steady-state [17]: 0.5 to 4 µg/mL

colistin sulphate
time at which 1 mg/mL in the OC was reached [18]: 2.83 h | MIC [1, 30]: 0.00006 μg/mL Drug Base | MIC [1, 31]: 0.00006 μg/mL Drug Base | MIC [1, 32]: 0.0002 μg/mL Drug Base | MIC [1, 22]: <0.008 μg/mL Drug Base | MIC [1, 33]: 0.00006 μg/mL Drug Base | MIC [1, 34]: 0.001 μg/mL Drug Base | MIC [1, 35]: 0.0002 μg/mL Drug Base | MIC [2, 23]: 2 μg/mL Drug Base | MIC [2, 24]: 0.5 μg/mL Drug Base | MIC [2, 30]: 0.063 μg/mL Drug Base | MIC [2, 31]: 0.063 μg/mL Drug Base | MIC [2, 32]: 0.25 μg/mL Drug Base | MIC [2, 33]: 0.063 μg/mL Drug Base | MIC [2, 34]: 0.063 μg/mL Drug Base | MIC [2, 35]: 0.125 μg/mL Drug Base | biofilm biomass compared to untreated control ([19]; 2 × MIC (colistin sulphate up to 2 × MIC), n = 15): no significant change | biofilm roughness ([19]; conjugates ≥MIC, colistin sulphate MIC, n = 15, p < 0.05): significantly increased | concentration required for growth inhibition (up to >48 h) [20]: ≥ 8 × MIC | MIC [5, 23]: 1 μg/mL Drug Base | MIC [5, 24]: 0.25 μg/mL Drug Base | MIC [7, 23]: 1 μg/mL Drug Base | MIC [7, 24]: 0.25 μg/mL Drug Base | MIC [7, 30]: 0.002 μg/mL Drug Base | MIC [7, 31]: 0.004 μg/mL Drug Base | MIC [7, 32]: 0.004 μg/mL Drug Base | MIC [7, 33]: 0.002 μg/mL Drug Base | MIC [7, 34]: 0.002 μg/mL Drug Base | MIC [7, 35]: 0.002 μg/mL Drug Base | MIC [8, 25]: 1 μg/mL Drug Base | MIC [8, 26]: 16 μg/mL Drug Base | MIC ([8]; MH broth, mucin 0%): 0.5 μg/mL Drug Base | reduction in viable bacterial counts after 4 h [21]: < 3 log10 CFU/mL | MIC [9, 25]: 2 μg/mL Drug Base | MIC [9, 26]: 16 μg/mL Drug Base | MIC ([9]; MH broth, mucin 0%): 0.5 μg/mL Drug Base | MIC [10, 25]: 1 μg/mL Drug Base | MIC [10, 26]: 64 μg/mL Drug Base | MIC [13, 23]: 0.125 μg/mL Drug Base | MIC [13, 24]: 0.125 μg/mL Drug Base | MIC [13, 27]: 1 μg/mL Drug Base | MIC [13, 28]: 2 μg/mL Drug Base | MIC [13, 29]: 0.125 μg/mL Drug Base | MIC [14, 23]: 0.125 μg/mL Drug Base | MIC [14, 24]: 0.031 μg/mL Drug Base | increase in MIC values when mucin was added to the bacterial culture medium [16]: > 100 fold

— article PMC7696216, “Bi-Functional Alginate Oligosaccharide–Polymyxin Conjugates for Improved Treatment of Multidrug-Resistant Gram-Negative Bacterial Infections” (Pharmaceutics, 2020)
